Results as given in paper PMC9120017, “Inhibition mechanism of the chloride channel TMEM16A by the pore blocker 1PBC” (Nature Communications, 2022).
Like-named read-outs stand apart in the source and are kept apart here.

Target: T1, mouse TMEM16A mutant P595A (Mus musculus, UniProt Q8BHY3, P595A)
T1 construct: expressed in transfected cells; host or cells: HEK293T
T1 sequence (Q8BHY3 1-960 P595A): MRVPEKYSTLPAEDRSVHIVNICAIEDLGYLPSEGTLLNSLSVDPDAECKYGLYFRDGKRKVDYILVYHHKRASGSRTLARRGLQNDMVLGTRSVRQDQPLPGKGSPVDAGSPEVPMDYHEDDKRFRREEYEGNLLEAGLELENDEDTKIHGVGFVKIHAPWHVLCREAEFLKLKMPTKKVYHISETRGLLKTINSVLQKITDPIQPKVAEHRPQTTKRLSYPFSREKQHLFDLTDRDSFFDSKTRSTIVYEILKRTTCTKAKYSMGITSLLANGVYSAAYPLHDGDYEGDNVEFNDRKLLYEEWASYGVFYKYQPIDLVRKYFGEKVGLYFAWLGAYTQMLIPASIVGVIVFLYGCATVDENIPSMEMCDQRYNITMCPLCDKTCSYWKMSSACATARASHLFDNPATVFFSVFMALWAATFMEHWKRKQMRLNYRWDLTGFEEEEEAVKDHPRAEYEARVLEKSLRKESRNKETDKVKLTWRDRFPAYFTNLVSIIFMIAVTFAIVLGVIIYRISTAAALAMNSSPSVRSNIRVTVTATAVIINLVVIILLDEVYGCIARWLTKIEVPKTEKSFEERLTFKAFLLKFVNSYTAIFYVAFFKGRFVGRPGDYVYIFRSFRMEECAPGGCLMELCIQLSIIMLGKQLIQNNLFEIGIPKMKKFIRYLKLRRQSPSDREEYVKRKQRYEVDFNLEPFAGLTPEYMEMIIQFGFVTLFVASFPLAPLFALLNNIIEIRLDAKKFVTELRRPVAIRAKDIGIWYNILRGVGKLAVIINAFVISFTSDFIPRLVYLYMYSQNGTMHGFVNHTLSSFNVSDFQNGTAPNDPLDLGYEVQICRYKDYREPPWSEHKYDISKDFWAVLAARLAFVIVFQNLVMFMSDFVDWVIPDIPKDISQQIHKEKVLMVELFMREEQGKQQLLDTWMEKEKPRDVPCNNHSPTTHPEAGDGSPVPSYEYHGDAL
Experiment: Inside-out patch recording of 1PBC block, mutant P595A
Assay type: cell-based
Conditions: for remaining activity at 1 µM: 1PBC conc 1; for remaining activity at 1 µM / remaining activity at 3 µM / remaining activity at 10 µM / remaining activity at 30 µM: read-out: relative current in 1PBC (avr); for remaining activity at 3 µM: 1PBC conc 3; for remaining activity at 10 µM: 1PBC conc 10; for remaining activity at 30 µM: 1PBC conc 30
Experimental: HEK293T cells (ATCC CRL-1573) were maintained in Dulbecco’s modified Eagle’s medium (DMEM; Sigma-Aldrich) supplemented with 10 U ml^−1 penicillin, 0.1 mg ml^−1 streptomycin (Sigma-Aldrich), 2 mM L-glutamine (Sigma-Aldrich), and 10% FBS (Sigma-Aldrich) in a humidified atmosphere containing 5% CO2 at 37 °C. HEK293S GnTI^− cells (ATCC CRL-3022) were maintained in HyClone HyCell TransFx-H medium (GE Healthcare) supplemented with 10 U ml^−1 penicillin, 0.1 mg ml^−1 streptomycin, 4 mM L-glutamine, 0.15% poloxamer 188 (Sigma-Aldrich), and 1% FBS in an atmosphere containing 5% CO2 at 185 rpm at 37 °C. The ac splice variant of mouse TMEM16A (UniProt ID: Q8BHY3), mouse TMEM16B (UniProt ID: Q8CFW1), or mouse TMEM16F (UniProt ID: Q6P9J9) bearing a 3C cleavage site, a Venus YFP, a Myc tag, and a Streptavidin-binding peptide (SBP) downstream of the open reading frame in a modified pcDNA3.1 vector (Invitrogen) were used as described previously[21],[31]. Mutations were introduced using a modified QuikChange method[58] and were verified by sequencing.
HEK293T cells were transfected with 3–4 μg DNA per 6 cm Petri dish using the calcium phosphate co-precipitation method and were used within 24–96 h after transfection. Recordings were performed on inside-out patches excised from HEK293T cells expressing the construct of interest. Patch pipettes were pulled from borosilicate glass capillaries (O.D. 1.5 mm, I.D. 0.86 mm, Sutter Instrument) and were fire-polished with a microforge (Narishige) before use. Pipette resistance was typically 3–8 MΩ when filled with the recording solutions detailed below. Seal resistance was typically 4 GΩ or higher. Voltage-clamp recordings were made using Axopatch 200B, Digidata 1550, and Clampex 10.7 (Molecular Devices). Analog signals were filtered with the in-built 4-pole Bessel filter at 10 kHz and were digitized at 20 kHz. Solution exchange was achieved using a gravity-fed system through a theta glass pipette mounted on an ultra-fast piezo-driven stepper (Siskiyou). […] All recordings were performed at 20 °C.
A symmetrical ionic condition was used throughout. Stock solution with Ca^2+-EGTA contained 150 mM NaCl, 5.99 mM Ca(OH)2, 5 mM EGTA, and 10 mM HEPES at pH 7.40. Stock solution with EGTA contained 150 mM NaCl, 5 mM EGTA, and 10 mM HEPES at pH 7.40. Free Ca^2+ concentrations were adjusted by mixing the stock solutions at the required ratios calculated using the WEBMAXC program (http://web.stanford.edu/~cpatton/webmaxcS.htm). Patch pipettes were filled with the stock solution with Ca^2+-EGTA, which has a free Ca^2+ concentration of 1 mM. 1PBC (ChemBridge) stock was reconstituted in anhydrous DMSO (Sigma-Aldrich) at 100 mM and stored at −20 °C. Working solutions with 1PBC were prepared by serial dilution. Unless otherwise stated, experiments were performed at a saturating Ca^2+ concentration as shown in Supplementary Table 1 and the primary data were corrected for current rundown as described previously[21],[25].
Concentration-response relations, obtained from the ratio of the I-V plots before and after the application of the blocker, were fitted to the Hill equation,1 I/Imax=1/1+IC50/[blocker]^h where I/Imax is the normalized current responses, IC50 defines the concentration at which inhibition is at its half-maximum, and h is the Hill coefficient.

IC50 (0 mV, 2 µM Ca2+): 3.1 µM
remaining activity at 1 µM (0 mV): 75.3%
remaining activity at 3 µM (0 mV): 48.8%
remaining activity at 10 µM (0 mV): 25.9%
remaining activity at 30 µM (0 mV): 11.1%
IC50 (20 mV, 2 µM Ca2+): 2.46 µM
remaining activity at 1 µM (20 mV): 70.9%
remaining activity at 3 µM (20 mV): 43%
remaining activity at 10 µM (20 mV): 22.6%
remaining activity at 30 µM (20 mV): 8.98%
IC50 (40 mV, 2 µM Ca2+): 2 µM
remaining activity at 1 µM (40 mV): 66.5%
remaining activity at 3 µM (40 mV): 38.4%
remaining activity at 10 µM (40 mV): 19%
remaining activity at 30 µM (40 mV): 7.73%
IC50 (60 mV, 2 µM Ca2+): 1.75 µM
remaining activity at 1 µM (60 mV): 64.4%
remaining activity at 3 µM (60 mV): 34.6%
remaining activity at 10 µM (60 mV): 16.9%
remaining activity at 30 µM (60 mV): 7.56%
IC50 (80 mV, 2 µM Ca2+): 1.57 µM
remaining activity at 1 µM (80 mV): 61.3%
remaining activity at 3 µM (80 mV): 32.5%
remaining activity at 10 µM (80 mV): 15.9%
remaining activity at 30 µM (80 mV): 7.06%
IC50 (100 mV, 2 µM Ca2+): 1.48 µM
remaining activity at 1 µM (100 mV): 60.2%
remaining activity at 3 µM (100 mV): 31%
remaining activity at 10 µM (100 mV): 15.3%
remaining activity at 30 µM (100 mV): 6.31%
IC50 (120 mV, 2 µM Ca2+): 1.63 µM
remaining activity at 1 µM (120 mV): 64.3%
remaining activity at 3 µM (120 mV): 31.5%
remaining activity at 10 µM (120 mV): 15.7%
remaining activity at 30 µM (120 mV): 6.66%
IC50 (140 mV, 2 µM Ca2+): 1.91 µM
remaining activity at 1 µM (140 mV): 70.3%
remaining activity at 3 µM (140 mV): 33.2%
remaining activity at 10 µM (140 mV): 17.5%
remaining activity at 30 µM (140 mV): 7.54%
IC50 (-20 mV, 2 µM Ca2+): 3.88 µM
remaining activity at 1 µM (-20 mV): 79.6%
remaining activity at 3 µM (-20 mV): 54.6%
remaining activity at 10 µM (-20 mV): 29.2%
remaining activity at 30 µM (-20 mV): 13.3%
IC50 (-40 mV, 2 µM Ca2+): 4.91 µM
remaining activity at 1 µM (-40 mV): 84%
remaining activity at 3 µM (-40 mV): 59.7%
remaining activity at 10 µM (-40 mV): 33.9%
remaining activity at 30 µM (-40 mV): 15.9%
IC50 (-60 mV, 2 µM Ca2+): 5.83 µM
remaining activity at 1 µM (-60 mV): 87.1%
remaining activity at 3 µM (-60 mV): 62.7%
remaining activity at 10 µM (-60 mV): 37.7%
remaining activity at 30 µM (-60 mV): 18.7%
IC50 (-80 mV, 2 µM Ca2+): 7 µM
remaining activity at 1 µM (-80 mV): 88.8%
remaining activity at 3 µM (-80 mV): 67.8%
remaining activity at 10 µM (-80 mV): 41.3%
remaining activity at 30 µM (-80 mV): 21%
IC50 (-100 mV, 2 µM Ca2+): 8.19 µM
remaining activity at 1 µM (-100 mV): 90.4%
remaining activity at 3 µM (-100 mV): 70.3%
remaining activity at 10 µM (-100 mV): 45%
remaining activity at 30 µM (-100 mV): 24%
IC50 (-120 mV, 2 µM Ca2+): 9.33 µM
remaining activity at 1 µM (-120 mV): 92.2%
remaining activity at 3 µM (-120 mV): 72.9%
remaining activity at 10 µM (-120 mV): 47.9%
remaining activity at 30 µM (-120 mV): 26.1%
IC50 (-140 mV, 2 µM Ca2+): 10.5 µM
remaining activity at 1 µM (-140 mV): 93.8%
remaining activity at 3 µM (-140 mV): 75.4%
remaining activity at 10 µM (-140 mV): 50.3%
remaining activity at 30 µM (-140 mV): 28.4%
IC50 (P595A, V 0 mV): 3.1 µM
IC50 (P595A, V 20 mV): 2.46 µM
IC50 (P595A, V 40 mV): 2 µM
IC50 (P595A, V 60 mV): 1.75 µM
IC50 (P595A, V 80 mV): 1.57 µM
IC50 (P595A, V 100 mV): 1.48 µM
IC50 (P595A, V 120 mV): 1.63 µM
IC50 (P595A, V 140 mV): 1.91 µM
IC50 (P595A, V -20 mV): 3.88 µM
IC50 (P595A, V -40 mV): 4.91 µM
IC50 (P595A, V -60 mV): 5.83 µM
IC50 (P595A, V -80 mV): 7 µM
IC50 (P595A, V -100 mV): 8.19 µM
IC50 (P595A, V -120 mV): 9.33 µM
IC50 (P595A, V -140 mV): 10.5 µM
SMILES: N#Cc1c(C(F)(F)F)cc(O)n2c1nc1ccccc12 [1PBC]
